Measured values from publication doi:10.1101/2025.07.03.662851v1 (biorxiv, 2025).

Target: T1, recombinant wild-type human asparagine synthetase (ASNS) (Homo sapiens, UniProt P08243)
T1 sequence (P08243 2-561): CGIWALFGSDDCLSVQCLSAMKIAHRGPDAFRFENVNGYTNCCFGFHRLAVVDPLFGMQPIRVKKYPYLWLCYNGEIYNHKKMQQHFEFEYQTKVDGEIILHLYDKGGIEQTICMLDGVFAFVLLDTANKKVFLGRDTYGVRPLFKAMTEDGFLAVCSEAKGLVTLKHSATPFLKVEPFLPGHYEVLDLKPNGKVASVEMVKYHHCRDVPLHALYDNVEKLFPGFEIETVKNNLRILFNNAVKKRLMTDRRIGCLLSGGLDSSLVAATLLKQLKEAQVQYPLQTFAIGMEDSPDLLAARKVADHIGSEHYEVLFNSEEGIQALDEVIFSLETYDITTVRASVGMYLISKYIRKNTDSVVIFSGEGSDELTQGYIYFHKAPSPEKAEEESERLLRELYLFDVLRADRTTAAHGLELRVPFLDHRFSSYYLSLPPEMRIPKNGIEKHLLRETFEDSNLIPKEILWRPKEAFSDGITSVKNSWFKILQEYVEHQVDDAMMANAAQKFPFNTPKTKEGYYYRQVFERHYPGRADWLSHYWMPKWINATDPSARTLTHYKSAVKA
Test: PPi production, continuous NADH-coupled assay
Format: biochemical

CC[C@H](N)C(=O)N1C[C@@H](c2ccc(F)cc2)[C@H](O)[C@@H]1C(=O)NC(c1ccccc1)c1ccccc1 [ASX-173]
Ki: 400 pM
